Assays:
[1] = test system: Pendimethalin population (ROTH PEND 14) of black-grass; experiment: Cross resistance test of the Pendimethalin selected line; format: in vivo, Alopecurus myosuroides; conditions: full or ¾ field rate; FIG. 18; not due to TSR (PCR of ACCases)
Description: (§1) However, given that the two populations have no known relationship to the HS population, some of these differences could have arisen due to background genetic variation not linked to herbicide resistance. To test this, the inventors extended the proteomic comparison to two additional populations originating from the HS Rothamsted population that had undergone 5-7 years of experimentally controlled selection under a single herbicide regime, either Fenoxaprop or Pendimethalin (Supplementary Methods S1). These herbicides were used because whereas resistance to fenoxaprop can arise through both TSR- and NTSR-based mechanisms (Cocker et al., 1999), evolved tolerance to pendimethalin in black-grass is most commonly associated with enhanced detoxification (James et al., 1995). The inventors then tested these populations for cross-resistance to other herbicides at either full or ¾ field rate (Supplementary Methods S2). Despite being selected under exposure to a single herbicidal mode of action (inhibition of microtubule assembly), the Pendimethalin population was also resistant against several herbicides with ACCase mode of action (fenoxaprop, clodinafop, cycloxidim), but not ALS or cell division MOA (FIG. 18). PCR of the respective ACCases in the selected population (Marshall et al., 2013), confirmed that resistance was not due to TSR-related mechanisms.
A black-grass population originating from Rothamsted Broadbalk experimental grounds (guaranteed herbicide free) was used as the standard Herbicide Susceptible (HS) population, collected in 2009. This was used as a standard control for two “real” NTSR populations originating from wheat field sites in Essex (Peldon) and Oxford and two experimental NTSR populations that had undergone directed selection to two types of herbicidal active ingredients (Fenoxaprop and Pendimethalin). Both experimental populations originated from the Rothamsted HS population in 2004. Further details on the selection regime to create the distinct Fenoxaprop and Pendimethalin resistant populations are provided in Supplementary Methods S1/S2. […]

[2] = test system: Fenoxaprop population (ROTH FEN OUT) of black-grass; experiment: Cross resistance test of the Fenoxaprop selected line; format: in vivo, Alopecurus myosuroides; conditions: full or ¾ field rate; FIG. 18; no evidence of TSR
Description: as §1, with “mechanisms. […]” for “mechanisms.”

## C#CCOC(=O)[C@@H](C)Oc1ccc(Oc2ncc(Cl)cc2F)cc1
[1]
  herbicide resistance of the Pendimethalin population: resistant

## CCCC(=NOCC)C1=C(O)CC(C2CCCSC2)CC1=O (stereo not shown) [cycloxidim]
[1]
  herbicide resistance of the Pendimethalin population: resistant

## CC(Oc1ccc(Oc2nc3ccc(Cl)cc3o2)cc1)C(=O)O (stereo not shown) [fenoxaprop]
[1]
  herbicide resistance of the Pendimethalin population: resistant
[2]
  herbicide resistance of the population selected with fenoxaprop: only resistant toward the selecting herbicide
